Experimental data published in patent publication US20220125959A1, “PROSTATE-SPECIFIC MEMBRANE ANTIGEN (PSMA) INHIBITORS AS DIAGNOSTIC AND RADIONUCLIDE THERAPEUTIC AGENTS” (FIVE ELEVEN PHARMA INC., priority 2019, published 2022).

Tested on: PIP tumor and PC3 tumor
Assay: Biodistribution of 125I labeled compounds 17, 18, 26 and 27 in tumor bearing nude mice
Type: in vivo
Conditions: for Biodistribution: Bladder* / Biodistribution: Stomach* / Biodistribution: large intestine* / Biodistribution: small intestine*: organ with content; for PIP/blood / PIP/muscle: ratio
Procedure: Radioiodination and Purification: 100 μg of either precursor 13, 14, 22 or 23 were dissolved in 100 μL EtOH; 22 μL Na^125I (1033-1118 μCi in 0.1 N NaOH), 100 μL 1N HCl and 100 μL 3% H2O2 were added. After 15 minutes at room temperature, the reaction was stopped by adding 150 μL sat. NaHSO3. The reaction mixture was slowly added to 1.5 mL sat. NaHCO3. Vial was rinsed with 1000 μL EtOH and mixture was diluted further to 10 mL mL water. The active sample was transferred onto an activated C4 mini column. The mixture was pushed through, washed twice with 3 mL water and the product was eluted with 1 mL ACN. Added 100 μL DMSO. The mixture was concentrated to ˜100 μL and purified by HPLC (Agilent Eclipse XCD C18 150×4.6 mm, 5 μm; 4 mL/min, gradient (ACN and water; 0-1 min (20/80), 1-16 min (20/80-100/0), 16-16.5 min (100/0-20/80), 16.5-20 min 20/80) (collected every minute). The sample was blown to dryness under argon, re-dissolved in 500 μL CH2Cl2 and 1 mL TFA was added at room temperature. After 1 hr the solution was blown to dryness and activity taken into 1 mL EtOH (10 μL saturated ascorbic acid/EtOH was added). Isolated activities for [^125I]17, 18, 26, and 27 were 197, 189, 600 and 197 μCi respectively. A representative picture of HPLC profiles (FIG. 3) for radiolabeled protected (intermediate), cold standard and radioactive trace of final compound is shown for [^125I]26.
For iv injection 150 μL of labeled solution was diluted with saline to 3.75 mL. Mice were injected with 2˜3 μCi of [^125I]18, 27, 26, and 18 in 0.15 mL saline. Injected radioactivity was 2 to 3 μCi.
Biodistribution study of [^125I]18, 27, 26, and 18 in tumor bearing nude mice were evaluated for their ability to localization of PSMA positive tumor (Tables 5, 6, 7 and 8). It was observed that [^125I]26 and [^125I] […] These new agents are valuable for radionuclide therapy, when labeled with beta or alpha-emitting isotopes; but these agents will also be useful as diagnostic agents when labeled with gamma-emitting isotopes.

## O=C(O)CC[C@H](NC(=O)N[C@@H](CCCCNC(=O)[C@H](Cc1ccccc1)NC(=O)[C@H](CCC(=O)O)NC(=O)c1ccc([125I])cc1)C(=O)O)C(=O)O [[^125I]17]
1 h
  Biodistribution: Blood: 0.45 ± 0.11 % ID/g
  Biodistribution: Bone: 0.16 ± 0.02 % ID/g
  Biodistribution: Heart: 0.29 ± 0.04 % ID/g
  Biodistribution: Kidney: 41.44 ± 5.10 % ID/g
  Biodistribution: Liver: 2.94 ± 2.12 % ID/g
  Biodistribution: Lung: 1.15 ± 1.27 % ID/g
  Biodistribution: Muscle: 0.43 ± 0.24 % ID/g
  Biodistribution: PC3 tumor: 1.70 ± 1.33 % ID/g
  Biodistribution: PIP tumor: 10.72 ± 2.98 % ID/g
  Biodistribution: Pancreas: 0.55 ± 0.64 % ID/g
  Biodistribution: Skin: 0.57 ± 0.24 % ID/g
  Biodistribution: Spleen: 3.25 ± 1.52 % ID/g
  Biodistribution: gland: 0.81 ± 0.18 % ID/g
  Biodistribution: thyroid: 3.57 ± 0.75 % ID/g
  Biodistribution: Bladder*: 204.72 ± 108.11 % ID/g
  Biodistribution: Stomach*: 0.18 ± 0.05 % ID/g
  Biodistribution: large intestine*: 2.10 ± 1.64 % ID/g
  Biodistribution: small intestine*: 3.22 ± 1.64 % ID/g
  PIP/blood: 23.69 ± 2.07
  PIP/muscle: 27.52 ± 7.80
4 h
  Biodistribution: Blood: 0.09 ± 0.03 % ID/g
  Biodistribution: Bone: 0.03 ± 0.02 % ID/g
  Biodistribution: Heart: 0.11 ± 0.07 % ID/g
  Biodistribution: Kidney: 25.41 ± 7.57 % ID/g
  Biodistribution: Liver: 0.48 ± 0.53 % ID/g
  Biodistribution: Lung: 0.19 ± 0.13 % ID/g
  Biodistribution: Muscle: 0.25 ± 0.44 % ID/g
  Biodistribution: PC3 tumor: 0.28 ± 0.10 % ID/g
  Biodistribution: PIP tumor: 5.17 ± 2.02 % ID/g
  Biodistribution: Pancreas: 0.22 ± 0.25 % ID/g
  Biodistribution: Skin: 0.11 ± 0.04 % ID/g
  Biodistribution: Spleen: 0.46 ± 0.27 % ID/g
  Biodistribution: gland: 0.19 ± 0.05 % ID/g
  Biodistribution: thyroid: 7.16 ± 1.91 % ID/g
  Biodistribution: Bladder*: 68.75 ± 30.09 % ID/g
  Biodistribution: Stomach*: 0.11 ± 0.10 % ID/g
  Biodistribution: large intestine*: 0.86 ± 0.22 % ID/g
  Biodistribution: small intestine*: 0.23 ± 0.16 % ID/g
  PIP/blood: 62.95 ± 31.81
  PIP/muscle: 200.29 ± 221.74
mouse, in vivo
  Washout in PIP tumors, kidneys and spleen compared to [125I]18 and [125I]27: significantly faster washout

## O=C(O)CC[C@H](NC(=O)N[C@@H](CCCCNC(=O)[C@H](Cc1ccccc1)NC(=O)[C@H](CCC(=O)O)NC(=O)[C@H](CCC(=O)O)NC(=O)c1ccc([125I])cc1)C(=O)O)C(=O)O [[^125I]18]
1 h
  Biodistribution: Blood: 0.71 ± 0.31 % ID/g
  Biodistribution: Bone: 0.89 ± 0.08 % ID/g
  Biodistribution: Heart: 3.06 ± 0.48 % ID/g
  Biodistribution: Kidney: 96.21 ± 21.68 % ID/g
  Biodistribution: Liver: 3.57 ± 0.32 % ID/g
  Biodistribution: Lung: 3.16 ± 0.55 % ID/g
  Biodistribution: Muscle: 0.95 ± 0.27 % ID/g
  Biodistribution: PC3 tumor: 2.22 ± 0.58 % ID/g
  Biodistribution: PIP tumor: 13.29 ± 3.46 % ID/g
  Biodistribution: Pancreas: 1.66 ± 0.93 % ID/g
  Biodistribution: Skin: 1.48 ± 0.44 % ID/g
  Biodistribution: Spleen: 6.83 ± 0.46 % ID/g
  Biodistribution: gland: 4.03 ± 0.46 % ID/g
  Biodistribution: thyroid: 15.99 ± 1.88 % ID/g
  Biodistribution: Bladder*: 97.62 ± 20.87 % ID/g
  Biodistribution: Stomach*: 0.46 ± 0.29 % ID/g
  Biodistribution: large intestine*: 1.12 ± 0.65 % ID/g
  Biodistribution: small intestine*: 1.98 ± 0.27 % ID/g
  PIP/blood: 21.30 ± 8.28
  PIP/muscle: 16.14 ± 10.36
4 h
  Biodistribution: Blood: 0.33 ± 0.17 % ID/g
  Biodistribution: Bone: 0.45 ± 0.23 % ID/g
  Biodistribution: Heart: 1.60 ± 0.46 % ID/g
  Biodistribution: Kidney: 69.39 ± 24.24 % ID/g
  Biodistribution: Liver: 2.62 ± 1.62 % ID/g
  Biodistribution: Lung: 1.50 ± 0.65 % ID/g
  Biodistribution: Muscle: 0.69 ± 0.27 % ID/g
  Biodistribution: PC3 tumor: 1.20 ± 0.52 % ID/g
  Biodistribution: PIP tumor: 15.27 ± 5.40 % ID/g
  Biodistribution: Pancreas: 0.89 ± 0.13 % ID/g
  Biodistribution: Skin: 0.81 ± 0.37 % ID/g
  Biodistribution: Spleen: 4.37 ± 1.70 % ID/g
  Biodistribution: gland: 2.25 ± 0.80 % ID/g
  Biodistribution: thyroid: 26.99 ± 18.70 % ID/g
  Biodistribution: Bladder*: 123.13 ± 40.10 % ID/g
  Biodistribution: Stomach*: 0.72 ± 0.76 % ID/g
  Biodistribution: large intestine*: 0.74 ± 0.25 % ID/g
  Biodistribution: small intestine*: 1.11 ± 0.82 % ID/g
  PIP/blood: 50.29 ± 15.07
  PIP/muscle: 25.78 ± 14.13
mouse, in vivo
  Liver uptakes: low

## O=C(O)CC[C@H](NC(=O)N[C@@H](CCCCNC(=O)[C@H](Cc1ccccc1)NC(=O)COc1ccc(C[C@H](NC(=O)[C@H](CCC(=O)O)NC(=O)c2ccc([125I])cc2)C(=O)O)cc1)C(=O)O)C(=O)O [[^125I]26]
1 h
  Biodistribution: Blood: 0.46 ± 0.22 % ID/g
  Biodistribution: Bone: 0.48 ± 0.11 % ID/g
  Biodistribution: Heart: 0.73 ± 0.20 % ID/g
  Biodistribution: Kidney: 174.61 ± 30.65 % ID/g
  Biodistribution: Liver: 4.61 ± 1.72 % ID/g
  Biodistribution: Lung: 3.08 ± 0.87 % ID/g
  Biodistribution: Muscle: 1.72 ± 0.54 % ID/g
  Biodistribution: PC3 tumor: 2.39 ± 1.42 % ID/g
  Biodistribution: PIP tumor: 26.19 ± 3.46 % ID/g
  Biodistribution: Pancreas: 0.98 ± 0.42 % ID/g
  Biodistribution: Skin: 2.33 ± 0.61 % ID/g
  Biodistribution: Spleen: 21.66 ± 2.63 % ID/g
  Biodistribution: gland: 6.97 ± 1.06 % ID/g
  Biodistribution: thyroid: 13.21 ± 8.48 % ID/g
  Biodistribution: Bladder*: 14.69 ± 3.80 % ID/g
  Biodistribution: Stomach*: 0.35 ± 0.11 % ID/g
  Biodistribution: large intestine*: 1.24 ± 0.79 % ID/g
  Biodistribution: small intestine*: 1.08 ± 0.63 % ID/g
  PIP/blood: 66.04 ± 29.31
  PIP/muscle: 16.02 ± 3.85
4 h
  Biodistribution: Blood: 0.21 ± 0.21 % ID/g
  Biodistribution: Bone: 0.25 ± 0.06 % ID/g
  Biodistribution: Heart: 0.38 ± 0.23 % ID/g
  Biodistribution: Kidney: 114.69 ± 32.67 % ID/g
  Biodistribution: Liver: 4.90 ± 1.80 % ID/g
  Biodistribution: Lung: 2.08 ± 0.67 % ID/g
  Biodistribution: Muscle: 0.30 ± 0.19 % ID/g
  Biodistribution: PC3 tumor: 1.37 ± 0.45 % ID/g
  Biodistribution: PIP tumor: 14.32 ± 3.87 % ID/g
  Biodistribution: Pancreas: 0.52 ± 0.26 % ID/g
  Biodistribution: Skin: 1.67 ± 1.30 % ID/g
  Biodistribution: Spleen: 15.37 ± 3.26 % ID/g
  Biodistribution: gland: 2.03 ± 1.29 % ID/g
  Biodistribution: thyroid: 28.57 ± 10.04 % ID/g
  Biodistribution: Bladder*: 15.11 ± 4.09 % ID/g
  Biodistribution: Stomach*: 0.49 ± 0.27 % ID/g
  Biodistribution: large intestine*: 1.35 ± 0.47 % ID/g
  Biodistribution: small intestine*: 0.30 ± 0.11 % ID/g
  PIP/blood: 104.80 ± 62.05
  PIP/muscle: 60.91 ± 38.35
mouse, in vivo
  Liver uptakes: low
  Uptakes in PIP tumors, kidneys and spleen compared to [125I]17 and [125I]18: higher uptakes
  Washout in PIP tumors, kidneys and spleen compared to [125I]18 and [125I]27: significantly faster washout
